According to patent US7842671B1, “Peptidomimetic inhibitors of STAT activity and uses thereof” (University of South Florida, priority 2003, dated 2010):

Key:
Stat5:Stat5 = experiment: EMSA of Stat5:Stat5 DNA-binding in nuclear extracts; assay type: biochemical, mouse; conditions: nuclear extracts pre-incubated 30 min, mean and SD of at least 3 assays, read-out: IC50 values against STAT Dimers, Stat5:Stat5
Protocol: (§1) Nuclear extract preparation and gel shift assays. Nuclear extracts were prepared from cell lines and used for electrophoretic mobility shift assay (EMSA) as previously described (Garcia, R. et al. (1997); Yu, C. L. et al. (1995); Turkson, J. et al. (1998)). In some cases, cells were pre-treated with peptidomimetics for the indicated times (12-48 h) prior to harvesting for nuclear extract preparation. In other studies, nuclear extracts were pre-incubated with peptidomimetics for 30 min at room temperature prior to incubation with radiolabeled probe. The ^32P-radiolabeled oligonucleotide probes used are hSIE (high affinity sis-inducible element, m67 variant, 5′-[…]-3′) (SEQ ID NO. 3) that binds both Stat1 and Stat3 (Garcia, R. et al. (1997); Wagner B. J. et al. (1990)) and MGFe (mammary gland factor element from the bovine β-casein gene promoter, 5′-[…]-3′) (SEQ ID NO. 4) that binds Stat1 and Stat5 (Gouilleux, F. et al. (1995); Seidel, H. M. et al. (1995)).
(§2) Peptidomimetics of the invention can be prepared by replacing prolyl or alanyl residue at the peptide bond that is N-terminal to the phosphotyrosine (Y*) of a peptide such as PY*L or AY*L with an organic substituent such as an optionally substituted aryl or heteroaryl group. The activities of STATs were measured in nuclear extracts (prepared from epidermal growth factor (EGF)-stimulated fibroblasts) as DNA-bound protein complexes by electrophoretic mobility shift assay (EMSA). STAT-DNA complexes detected include Stat3:Stat3 homodimers (upper band), Stat1:Stat3 heterodimers (intermediate band) and Stat1:Stat1 homodimers (lower band) (FIG. 1A) when a ^32P-labeled hSIE oligonucleotide probe is used, or Stat5:Stat5 (upper band) and Stat1:Stat1 dimers (lower band) (FIG. 1B) when ^32P-labeled MGFe is used as a probe.

MDA-MB-231 = assay type: cell-based, human; conditions: 1 mM, MDA-MB-231, four days
Protocol: (§3) Cell proliferation, soft-agar growth and Apo-BrdU labeling studies. Proliferating fibroblasts and human tumor cells were counted by phase-contrast microscopy for viable cells (using tyrpan blue exclusion). Colony formation assays in six-well dishes and quantification of colonies by iodonitrotetrazolium violet have been previously described (Turkson, J. et al. (1999)). Treatment of cells with inhibitors was initiated 1 day after seeding cells by adding 75 μl of medium with or without inhibitor, and repeated every two to three days. Apoptosis was measured by Apo-BrdU labeling and following the supplier's (PharMingen; San Diego, Calif.) instructions.
(§4) Stat3 has an essential role in cell proliferation, and constitutively-active Stat3 is required for growth of transformed and tumor cells that harbor aberrant Stat3 signaling. Studies were performed to determine the effects of the peptidomimetic-mediated inhibition of Stat3 on cell proliferation using trypan blue exclusion for viable cell counts.

MDA-MB-435 = assay type: cell-based, human; conditions: 1 mM, MDA-MB-435, four days
Protocol: as §3, §4

MDA-MB-453 = assay type: cell-based, human; conditions: 1 mM
Protocol: as §3, §4

Stat3 = Stat3 (Mus musculus, UniProt P42227); experiment: EMSA of Stat3 DNA-binding activity in nuclear extracts (hSIE probe); assay type: biochemical; set-up: nuclear extracts (prepared from epidermal growth factor (EGF)-stimulated fibroblasts); endogenous in cells; host or cells: NIH3T3 fibroblasts stimulated with EGF; conditions: EMSA
Chain of Stat3 (P42227 whole entry): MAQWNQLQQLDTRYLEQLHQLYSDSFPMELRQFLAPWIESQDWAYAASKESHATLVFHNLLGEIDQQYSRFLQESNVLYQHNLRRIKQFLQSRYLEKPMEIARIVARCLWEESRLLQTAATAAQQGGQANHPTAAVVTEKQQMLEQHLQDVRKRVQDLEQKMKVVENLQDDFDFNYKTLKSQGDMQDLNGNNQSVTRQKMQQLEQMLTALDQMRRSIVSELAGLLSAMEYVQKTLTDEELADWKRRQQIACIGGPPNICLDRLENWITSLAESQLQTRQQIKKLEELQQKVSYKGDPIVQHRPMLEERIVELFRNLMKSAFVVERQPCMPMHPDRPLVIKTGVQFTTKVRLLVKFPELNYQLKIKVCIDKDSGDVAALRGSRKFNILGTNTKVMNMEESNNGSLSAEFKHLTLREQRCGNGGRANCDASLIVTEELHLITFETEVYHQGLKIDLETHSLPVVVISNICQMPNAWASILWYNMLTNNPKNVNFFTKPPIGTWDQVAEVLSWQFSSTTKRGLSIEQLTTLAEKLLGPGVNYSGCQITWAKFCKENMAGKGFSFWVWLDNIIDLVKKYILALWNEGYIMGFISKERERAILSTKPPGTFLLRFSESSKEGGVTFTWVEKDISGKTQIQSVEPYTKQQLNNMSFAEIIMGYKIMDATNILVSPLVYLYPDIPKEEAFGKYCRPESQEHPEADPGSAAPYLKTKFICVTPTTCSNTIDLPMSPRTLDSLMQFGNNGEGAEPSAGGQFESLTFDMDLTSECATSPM
Protocol: as §1
Peptidomimetics of the invention can be prepared by replacing prolyl or alanyl residue at the peptide bond that is N-terminal to the phosphotyrosine (Y*) of a peptide such as PY*L or AY*L with an organic substituent such as an optionally substituted aryl or heteroaryl group. The activities of STATs were measured in nuclear extracts (prepared from epidermal growth factor (EGF)-stimulated fibroblasts) as DNA-bound protein complexes by electrophoretic mobility shift assay (EMSA).
From densitometric analysis of band intensities, the IC50 values (concentration of peptidomimetic at which DNA-binding activity is reduced by 50%), which are reported in Table 3, were determined.

Stat1:Stat1 = molecular target: T1, Stat1:Stat1 (Mus musculus, UniProt P42225); experiment: EMSA of Stat1:Stat1 DNA-binding in nuclear extracts; assay type: biochemical
T1 construct: nuclear extracts (prepared from epidermal growth factor (EGF)-stimulated fibroblasts); endogenous in cells; host or cells: NIH3T3 fibroblasts stimulated with EGF
T1 sequence (P42225 1-749): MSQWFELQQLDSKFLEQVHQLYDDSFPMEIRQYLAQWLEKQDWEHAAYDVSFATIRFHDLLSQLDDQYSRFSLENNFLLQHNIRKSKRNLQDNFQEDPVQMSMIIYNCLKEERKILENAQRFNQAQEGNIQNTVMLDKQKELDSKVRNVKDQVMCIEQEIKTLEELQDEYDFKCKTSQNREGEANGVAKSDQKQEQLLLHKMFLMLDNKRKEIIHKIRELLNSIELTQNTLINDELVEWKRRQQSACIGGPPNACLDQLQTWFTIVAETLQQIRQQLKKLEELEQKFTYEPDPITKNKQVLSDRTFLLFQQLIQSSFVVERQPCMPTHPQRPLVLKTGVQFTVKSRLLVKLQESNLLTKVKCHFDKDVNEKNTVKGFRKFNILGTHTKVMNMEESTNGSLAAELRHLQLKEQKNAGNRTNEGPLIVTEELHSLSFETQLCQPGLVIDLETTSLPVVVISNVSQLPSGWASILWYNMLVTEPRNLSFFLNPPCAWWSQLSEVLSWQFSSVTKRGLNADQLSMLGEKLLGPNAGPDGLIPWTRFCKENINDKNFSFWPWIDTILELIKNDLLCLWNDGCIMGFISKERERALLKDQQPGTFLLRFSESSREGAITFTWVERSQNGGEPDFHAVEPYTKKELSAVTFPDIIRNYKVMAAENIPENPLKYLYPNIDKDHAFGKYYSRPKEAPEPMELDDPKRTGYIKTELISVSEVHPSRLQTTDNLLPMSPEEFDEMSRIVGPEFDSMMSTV
Protocol: as §1, §2

NIH3T3/v-Src = experiment: Soft-agar growth of v-Src-transformed fibroblasts; assay type: cell-based, mouse; conditions: 1 mM every 2-3 days
Protocol: as §3
Previous studies with PY*LKTK-MTS (SEQ ID NO. 1) (Turkson, J. et al., 2001)) confirmed that inhibition of constitutive Stat3 activation blocks Src transformation (Turkson, J. et al. (1998); Turkson, J. et al., (1999); Bromberg, J. R. et al. (1998)).

For `CC(C)CC(NC(=O)C(Cc1ccc(OP(=O)(O)O)cc1)NC(=O)c1ccc(C#N)cc1)C(=O)O` (centres unmarked) [ISS 610], the IC50 (Stat5:Stat5) was 285 µM, the cell proliferation (MDA-MB-231) was “significantly suppresses proliferation” and the cell proliferation (MDA-MB-435) was “significantly suppresses proliferation”. For the same compound, the cell proliferation (MDA-MB-453) was “no effect on cell proliferation”, the “increase in potency in inhibiting Stat3 DNA-binding activity compared to tripeptides PY*L or AY*L” value (Stat3; in vitro) was 5 fold and the “effect on Stat3 DNA-binding activity in vitro (in words)” value (Stat3; nuclear extracts) was “potent disrupters of active Stat3”. For the same compound, the IC50 (Stat1:Stat1) was 310 µM and the “growth in soft-agar suspension” value (NIH3T3/v-Src) was “significantly suppressed”.
